# Patent publication US12338251B2, “Substituted macrocycles useful as kinase inhibitors” (TELIGENE LTD, priority 2019, dated 2025)
# Columns and labels:
# [1] = Solubility measurement (HPLC); assay type: physicochemical; settings: for solubility at 30 min: pH 7.0 buffer solution (20 mM), aqueous buffer, thermodynamic from solid
# Experimental: Preparation of reference standard solution: 2 mg of Compound was added individually to 100 mL volumetric flask each. The compound was diluted with acetonitrile to 100 mL.
# Preparation of sample solution: 2 mg of Compound was added individually to 2 mL eppendorf tube (EP), followed by addition of 1 mL of pH 7.0 or 10.0 buffer solution (20 mM). The solution was shaken for 2 minutes and left for 30 minutes at 25° C. After standing for 30 minutes, precipitate was formed in the bottom of the EP. The solutions were filtered through a 0.2 um membrane filter, and then diluted by 50 times with water.
# The standard and sample solutions were injected into the HPLC on a Shim-Pack CLC-ODS C18 column (150 mm×6.0 mm, 5 μm) with the same volume. The mobile phase consisted of acetonitrile with 2% trichloromethane—20 mM KH2PO4 buffer (pH=7.0) at a flow rate of 1 mL/minute (40:60). The detection wavelength is at 264 nm. Calculation: solubility of sample=the concentration of standard×Area of sample×50/Area of standard.
# CYP 3A4 = CYP 3A4 (Homo sapiens (Human), UniProt P08684); test: P450 3A4 assay in human liver microsomes (CYP inhibition); assay type: in vitro ADME; settings: for IC50: testosterone probe substrate
# Chain of CYP 3A4 (P08684 whole entry): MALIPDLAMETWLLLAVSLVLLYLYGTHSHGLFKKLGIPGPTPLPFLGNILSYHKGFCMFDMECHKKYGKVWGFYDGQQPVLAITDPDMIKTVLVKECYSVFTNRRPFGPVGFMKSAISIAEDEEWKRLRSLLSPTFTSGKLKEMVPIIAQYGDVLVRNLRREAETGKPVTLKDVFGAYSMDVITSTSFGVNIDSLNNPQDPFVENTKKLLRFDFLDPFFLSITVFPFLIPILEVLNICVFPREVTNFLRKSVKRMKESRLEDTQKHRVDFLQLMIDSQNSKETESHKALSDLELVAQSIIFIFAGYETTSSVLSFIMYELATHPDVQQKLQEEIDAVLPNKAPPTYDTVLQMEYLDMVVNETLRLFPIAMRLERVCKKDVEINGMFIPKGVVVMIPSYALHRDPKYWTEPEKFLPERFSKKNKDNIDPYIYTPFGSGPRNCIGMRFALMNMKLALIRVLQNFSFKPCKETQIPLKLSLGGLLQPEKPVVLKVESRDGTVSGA
# Experimental: The final concentrations of DMSO and acetonitrile were equal to or less than 0.1%.
# The column temperature was maintained at ambient temperature (25° C.). […] The flow rate was maintained at 0.6 mL/min.
# [2] = Stability test for one month, purity by HPLC; assay type: physicochemical; settings: HPLC purity after 30 days at 0° C.
# [3] = Stability test for one month, purity by HPLC; assay type: physicochemical; settings: for Day 30 at 25° C. (purity): HPLC purity after 30 days at 25° C.; for Day 0 (purity): HPLC purity, baseline of stability test
# Experimental: Stability test: The compounds were tested for their stability at 25° C. for one month, using HPLC to measure the purity. […] Compound 2 is not stable at −30° C. […] (Table F).
# [4] = PK study (bioavailability); assay type: in vivo; settings: rats; 1 mg/kg IV and 10 mg/kg orally; parent compound plus major metabolites
# Experimental: A representative protocol for the PK (pharmacokinetic) assay was as followed: Compounds were given either IV or orally to the same animals. The dose for each compound was 1 mg/kg (volume 5 ml/kg) IV and 10 mg/kg (volume 10 ml/kg) orally. The formulation for IV was in 10% SOLUTOL® HS 15+90% Phosphate-Buffered Saline at […]. A 100% (0.5% Tween 80 in 0.5% methylcellulose (MC) in water) at […] suspension was used for the oral formulation. Sample collection: for the IV route, plasma samples were collected at the time points of 0.083, 0.25, 0.5, 1, 2, 4, 8 and 24 hr. For the oral route, plasma samples were collected at the time points of 0.25, 0.5, 1, 2, 4, 8 and 24 hr. Total bioavailability is calculated by adding parent compound and major metabolites. Analysis: LC-MS/MS was used to calculate PK parameters: t1/2, tmax, Cmax, Vss and AUC, etc.
# The following Table E lists selected compounds and their bioavailability (F).
# Compound 3 and 4 have much improved bioavailability (F=100%).
# [5] = system: BaF3-SLC34A2-ROS1 cell line xenograft; test: In vivo xenograft assay, subcutaneous BaF3-SLC34A2-ROS1 in nude mice; design: species or system Balb/c nude mice; settings: 5 mg/kg oral gavage once daily; for Tumor weight at Day 20: nude mice, control 2.118 g
# Excerpt: A representative protocol for the in vivo experiment is as followed to establish the subcutaneous BaF3—SLC34A2-ROS1 cell line xenograft model in nude mice and to evaluate the in vivo therapeutic efficacy of the compounds:
# Animals: Male Balb/c nude mice (6˜8 weeks old) were obtained from SLAC Laboratory Animal, Shanghai, China. Animals were maintained under SPF conditions in sterile filter top cages and housed on HEPA-filtered ventilated racks. Animals received sterile rodent chow and water ad libitum.
# Cell line: BaF3—SLC34A2-ROS1, S.C.
# Xenograft Models in Athymic Mice: Cells for implantation into athymic mice were harvested and pelleted by centrifugation at 1200 r/min for 5 min. Cells were washed once and resuspended in sterile PBS buffer with 5×10^6 in 200 μl. Then cells were implanted s.c. into the right scapular region of each mouse and allowed to grow to 200-300 mm^3 before the administration of compound.
# Preparation of the Dose Formulation: each compound was suspended in 0.5% sodium carboxymethyl cellulose (CMC-Na). […]
# Observations: After inoculation, the animals are checked daily for morbidity and mortality. At the time of routine monitoring, the animals are checked for any effects of tumor growth and treatments on normal behavior such as mobility, body weight gain/loss (body weights are measured twice weekly or every other day), eye/hair matting and any other abnormal effect. Death and observed clinical signs are recorded on the basis of the numbers of animals within each subset.
# Tumor Size Measurements: Tumor volume was determined by measurement with electronic vernier calipers every 3 days and tumor volume was calculated as the product of its length×width2×0.5. […]
# Percentage (%) inhibition values were measured for drug-treated mice compared with vehicle-treated mice and are calculated as follows: Tumor growth inhibition (TGI, %)=100−[MTV treated/MTV control]×100, where MTV is the median tumor volume. Significant differences between the treated versus the control groups (p<0.05) were determined using t test. […]
# Ba/F3 EML4-ALK-L1196M = test: Cell proliferation assay (CTG), Ba/F3 EML4-ALK-L1196M; assay type: cell-based; settings: 72 hours
# Experimental: (§1) A Representative Number of Compounds were Assayed Against BAF3 Cell Lines Using the Cell Proliferation Assays:
# (§2) Cell Culture and Inoculation:
# (§3) 1. Cells in logarithmic growth phase were harvested and counted by platelet counter. Trypan blue exclusion method was used to detect the cell viability to ensure that the cell viability was above 90%.
# (§4) 2. Adjust the cell concentration; 90 μL cell suspension was added to 96 well plates respectively.
# (§5) 3. Cells in 96-well plate were cultured overnight at 37° C., 5% CO2 and 95% of humidity.
# (§6) Drug Dilution and Dosing:
# (§7) 1. Prepare 10-fold drug solution with the highest concentration of 100 μM, 9 concentrations and 3.16-fold dilution. Add 10 μL of drug solution to each well of 96-well plate inoculated with cells, and set up 3 duplicate wells for each drug concentration.
# (§8) 2. Cells in 96-well plates with drug added were cultured for 72 hours at 37° C., 5% CO2 and 95% of humidity, and then […]-GLO® (CTG) analysis was performed.
# (§9) 1. Melt CTG reagent and equilibrate cell plates to room temperature for 30 minutes.
# 2. […]
# (§10) 5. Read the cold light value.
# (§11) The data were analyzed by GraphPad Prism 5.0 software, and the dose-effect curve was obtained by fitting the data by nonlinear S-curve regression, and IC50 value was calculated accordingly.
# (§12) Cell survival rate (%)=(Lumdrug to be tested−Lumculture solution control)/(Lumcell control−Lumculture solution control)×100%. Lum is luminescence. […]
# Ba/F3 EML4-ALK-WT = test: Cell proliferation assay (CTG), Ba/F3 EML4-ALK-WT; assay type: cell-based; settings: Mus musculus, BaF3, 72 hours
# Experimental: as §1, §2, §3, §4, §5, §6, §7, §8, §9
# 2. […]
# as §10, §11, §12
# [6] = One-month toxicity studies in rats; assay type: in vivo; settings: 8 mg/kg/day females and 16 mg/kg/day males
SMILES,IC50 (CYP 3A4) [µM],Day 30 at 0° C. (purity) [2] [%],Day 30 at 25° C. (purity) [3] [%],Day 0 (purity) [3] [%],"solubility at 30 min ([1]; pH 7.0 buffer (20 mM), 25° C.) [µg/mL]",Tumor weight at Day 20 [5] [g],Stability at 0° C. or 25° C. (in words) ([3]; one month),further results
"C[C@H]1Oc2cc(cnc2NC(=O)CN)-c2c(nn(C)c2C#N)CN(C)C(=O)c2ccc(F)cc21 [Compound 2, reference compound]",10,92.58,86.14,97.28,–,–,–,"Solubility at pH 7.0 ([1]; pH 7.0 buffer (20 mM), 25° C.): 0.091 mg/mL; Stability at 25° C. (in words) ([3]; 25° C., one month): decomposed significantly; Major impurity A at Day 0 ([3]; HPLC, Day 0): 1.13%; Major impurity B at Day 0 ([3]; HPLC, Day 0): 1.39%; Major impurity A at Day 30 ([3]; HPLC, Day 30 at 25° C.): 3.98%; Major impurity B at Day 30 ([3]; HPLC, Day 30 at 25° C.): 8.34%; Stability at −30° C. (in words) ([3]; −30° C.): not stable; Total F (%) (oral bioavailability) [4]: 49%"
CC(=O)NCC(=O)Nc1ncc2cc1O[C@H](C)c1cc(F)ccc1C(=O)N(C)Cc1nn(C)c(C#N)c1-2 [Compound 3],279,99.18,99.16,99.24,772,0.327,no significant changes,Solubility at pH=7.0 (in words) ([1]; compared with compound 2 and Lorlatinib): much higher solubility; CYP 3A4 inhibition (in words) (CYP 3A4; compared with Lorlatinib and Compound 2): much weaker inhibition; Tumor growth inhibition at day 20 (in words) ([5]; compared with Lorlatinib): significant better tumor growth inhibition; IC50 (Ba/F3 EML4-ALK-L1196M): 0.051 µM; IC50 (Ba/F3 EML4-ALK-WT): 0.0028 µM
COC(=O)NCC(=O)Nc1ncc2cc1O[C@H](C)c1cc(F)ccc1C(=O)N(C)Cc1nn(C)c(C#N)c1-2 [Compound 4],–,97.13,97.25,97.23,–,–,no significant changes,–
CCOC(=O)NCC(=O)Nc1ncc2cc1O[C@H](C)c1cc(F)ccc1C(=O)N(C)Cc1nn(C)c(C#N)c1-2 [Compound 5],–,99.01,99.05,99.05,–,–,no significant changes,–
"C[C@H]1Oc2cc(cnc2N)-c2c(nn(C)c2C#N)CN(C)C(=O)c2ccc(F)cc21 [Lorlatinib, reference compound]",–,–,–,–,29,0.531,–,Prothrombin time [6]: shorten time; #LYMPH and Red blood cell in blood ([6]; end of administration and recovery periods): decreased
